Patent US20250296938A1, “Compounds that Interact with the Ras Superfamily for the Treatment of Cancers, Inflammatory Diseases, Rasopathies, and Fibrotic Disease” (SHY Therapeutics, LLC, priority 2018, published 2025)
Where two headings read alike, the source gives them in different places.

Experiments:
Experiment in all cases: Ras GTP binding domain inhibition assay (Cy3-GTP/Cy5-GTP competition)
[1] = test system: KRas G12C mutant; design: species or system human; conditions: 20 μM
Description: (§1) The following method was developed as specific assay for the following proteins: KRas wild type, KRas Q61H mutant, KRas G12C mutant, KRas G12D mutant, HRas wild type, Rac-1, and Rho-A.
(§2) • 25 mM Tris-HCl, pH 7.4 • 27 mM KCl • 137 mM NaCl • 1 mM MgCl2 • 1 mM DTT
(§3) • 50 mM Tris-HCl, pH 7.0 • 1 mM MgCl2 • 1 mM DTT
(§4) The small GTPases proteins: KRas wild type. KRas Q61H mutant, KRas G12C mutant, KRas G12D mutants, HRas wild type, Rac-1, and Rho-A were expressed as His-tagged proteins. In addition, the Guanosine nucleotide Exchange Factor (GEF) Sos protein (residues 556-1049) was expressed as a His-tagged protein. In cells, the guanine nucleotide exchange factor Sos protein promotes activation of Ras proteins by stimulating an exchange of GDP for GTP. The inclusion of Sos to the Ras GTP binding domain inhibition assay may be considered as an alternative representation of physiological cellular conditions for evaluating the inhibitory activity of some of the tested small molecules.
(§5) For the assay, all purified small GTPases proteins were diluted in Buffer-I or Buffer-II to a final concentration of 10-30 μg/mL. 200 μL of each diluted protein was added to a nickel-coated 96-well plate and incubated overnight at 4° C. Then the protein solution was discarded and 200 μL of Buffer-I or Buffer-II was added to each well in the presence of 1% DMSO. Compounds to be tested were added to the protein-coated wells at final concentration of 20 μM, and incubated for 3 hours at room temperature with and without […] of Sos added to the final hour of the incubation. When performing IC50 measurements a serial dilution of all tested concentrations was added. Then Cy3-GTP or Cy5-GTP was added to each well to a final concentration of 100 nM. The labeled GTP was incubated for 45 minutes at room temperature. Following GTP incubation, wells were washed 3× in Buffer-I or Buffer-II and 200 μL of Buffer-I or Buffer-II was added to each well. Following washes, the amount of bound labeled-GTP was measured using a SpectraMax M3 (Molecular Devices).

[2] = test system: KRas Q61H mutant; design: species or system human; conditions: 20 μM
Description: as §1, §2, §3, §4, §5

[3] = test system: KRas wild type; design: species or system human; conditions: 20 μM; for KRas wild type: % inh.: without SOS; for KRas wild type % inh.: without SOS (Table 7A)
Description: as §1, §2, §3, §4, §5

[4] = target: T1, KRas G12D mutant (Homo sapiens, UniProt P01116, G12D); conditions: 20 μM
T1 construct: fused on or other part: His tag, used for capture on nickel-coated plates
Description: as §1, §2, §3, §4, §5

[5] = with SOS, read-out: KRas G-12D mutant + SOS: % inh.
[6] = without SOS, read-out: KRas G12D mutant: % inh.
[7] = with SOS (Table 7A), read-out: KRas G12D mutant + SOS: % inh.
[8] = without SOS (Table 7A), read-out: KRas G12D mutant: % inh.

SMILES | KRas G12C mutant + SOS: % inh. ([1]; with SOS) | KRas G12C mutant: % inh. ([1]; without SOS) | KRas Q61H mutant + SOS: % inh. ([2]; with SOS) | KRas Q61H mutant: % inh. ([2]; without SOS) | KRas wild type + SOS: % inh. ([3]; with SOS) | KRas wild type: % inh. [3] | inhibition at 20 µM [4, 5] | inhibition at 20 µM [4, 6] | KRas G12C mutant + SOS: % inh. ([1]; with SOS (Table 7A)) | KRas G12C mutant: % inh. ([1]; without SOS (Table 7A)) | KRas Q61H mutant + SOS: % inh. ([2]; with SOS (Table 7A)) | KRas Q61H mutant: % inh. ([2]; without SOS (Table 7A)) | KRas wild type + SOS: % inh. ([3]; with SOS (Table 7A)) | KRas wild type % inh. [3] | inhibition at 20 µM [4, 7] | inhibition at 20 µM [4, 8]
COC1CCN(c2nc(-c3nccn3C)nc3sc(-c4cnn(C)c4)c(-c4ccccc4)c23)C1.Cl (stereo not shown) | D (76-100% inhibition) | C (51-75% inhibition) | D (76-100% inhibition) | B (26-50% inhibition) | D (76-100% inhibition) | B (26-50% inhibition) | 76 to 100% | 26 to 50% |  |  |  |  |  |  |  | 
COc1ccc(-c2sc3nc(-c4nccn4C)nc(N4CCC(OC)C4)c3c2-c2ccccc2)cn1.Cl (stereo not shown) | D (76-100% inhibition) | 0 (0% inhibition) | D (76-100% inhibition) | B (26-50% inhibition) | D (76-100% inhibition) | A (1-25% inhibition) | 51 to 75% | 26 to 50% |  |  |  |  |  |  |  | 
COC1CCN(c2nc(-c3nccn3C)nc3sc(-c4ccnn4C)c(-c4ccccc4)c23)C1.Cl (stereo not shown) | C (51-75% inhibition) | C (51-75% inhibition) | C (51-75% inhibition) | B (26-50% inhibition) | C (51-75% inhibition) | B (26-50% inhibition) | 51 to 75% | 51 to 75% |  |  |  |  |  |  |  | 
CO[C@H]1C[C@@H](Nc2nc(-c3nccn3C)nc3sc(-c4ccn(C)n4)c(-c4ccccc4)c23)C1.Cl |  |  |  |  |  |  |  |  | D (76-100% inhibition) | C (51-75% inhibition) | D (76-100% inhibition) | C (51-75% inhibition) | D (76-100% inhibition) | C (51-75% inhibition) | 51 to 75% | 26 to 50%
Cn1ccc(-c2sc3nc(-c4nccn4C)nc(N[C@@H]4CC[C@H](O)C4)c3c2-c2ccccc2)n1 (racemic) [drawing 909] |  |  |  |  |  |  |  |  | A (1-25% inhibition) | A (1-25% inhibition) | 0 (0% inhibition) | A (1-25% inhibition) | A (1-25% inhibition) | A (1-25% inhibition) | 0% | 0%
COCCn1cc(Nc2nc(-c3ccccn3)nc(OC)c2OC)cn1 [drawing 793] | A (1-25% inhibition) | A (1-25% inhibition) | A (1-25% inhibition) | 0 (0% inhibition) | A (1-25% inhibition) | 0 (0% inhibition) | 1 to 25% | 1 to 25% |  |  |  |  |  |  |  | 
COc1nc(-c2ccccn2)nc(Nc2cnn(C)c2)c1OC [drawing 794] | A (1-25% inhibition) | 0 (0% inhibition) | A (1-25% inhibition) | 0 (0% inhibition) | 0 (0% inhibition) | A (1-25% inhibition) | 0% | 0% |  |  |  |  |  |  |  | 
COCCNc1nc(-c2cn(C)cn2)nc2sc(-c3cc(OC)ccc3Cl)c(-c3ccc(OC)cc3)c12 [drawing 795] | D (76-100% inhibition) | B (26-50% inhibition) | D (76-100% inhibition) | B (26-50% inhibition) | D (76-100% inhibition) | B (26-50% inhibition) | 26 to 50% | 26 to 50% |  |  |  |  |  |  |  | 
COC1CCN(c2nc(-c3nccn3C)nn3cc(-c4ccccc4)c(-c4ccccc4)c23)C1 (stereo not shown) [drawing 796] | B (26-50% inhibition) | A (1-25% inhibition) | B (26-50% inhibition) | B (26-50% inhibition) | A (1-25% inhibition) | B (26-50% inhibition) | 1 to 25% | 26 to 50% |  |  |  |  |  |  |  | 
COCCNc1nc(-c2cn(C)cn2)nc2sc(-c3cccc(OC)c3Cl)c(-c3ccc(OC)cc3)c12 [drawing 797] | D (76-100% inhibition) | B (26-50% inhibition) | D (76-100% inhibition) | C (51-75% inhibition) | D (76-100% inhibition) | C (51-75% inhibition) | 26 to 50% | 26 to 50% |  |  |  |  |  |  |  | 
CC(C)CN(C)C(=O)c1nc(-c2ccccn2)nc(O)c1O [drawing 798] | B (26-50% inhibition) | C (51-75% inhibition) | B (26-50% inhibition) | B (26-50% inhibition) | A (1-25% inhibition) | B (26-50% inhibition) | 26 to 50% | 26 to 50% |  |  |  |  |  |  |  | 
CN(Cc1ccccc1)C(=O)c1nc(-c2ccccn2)nc(O)c1O [drawing 799] | B (26-50% inhibition) | C (51-75% inhibition) | B (26-50% inhibition) | C (51-75% inhibition) | B (26-50% inhibition) | C (51-75% inhibition) | 26 to 50% | 26 to 50% |  |  |  |  |  |  |  | 
O=C(c1nc(-c2ccccn2)nc(O)c1O)N1CCOCC1 [drawing 800] | A (1-25% inhibition) | B (26-50% inhibition) | A (1-25% inhibition) | B (26-50% inhibition) | A (1-25% inhibition) | C (51-75% inhibition) | 26 to 50% | 26 to 50% |  |  |  |  |  |  |  | 
COc1cccc(Oc2nc(-c3ccccn3)nc(O)c2OC)c1 [drawing 801] | C (51-75% inhibition) | C (51-75% inhibition) | C (51-75% inhibition) | D (76-100% inhibition) | C (51-75% inhibition) | D (76-100% inhibition) | 51 to 75% | 76 to 100% |  |  |  |  |  |  |  | 
COc1c(O)nc(-c2ccccn2)nc1Oc1cccnc1 [drawing 802] | C (51-75% inhibition) | C (51-75% inhibition) | C (51-75% inhibition) | D (76-100% inhibition) | B (26-50% inhibition) | D (76-100% inhibition) | 51 to 75% | 51 to 75% |  |  |  |  |  |  |  | 
COc1c(O)nc(-c2ccccn2)nc1Oc1cnn(C)c1 [drawing 803] | C (51-75% inhibition) | C (51-75% inhibition) | C (51-75% inhibition) | D (76-100% inhibition) | B (26-50% inhibition) | D (76-100% inhibition) | 51 to 75% | 51 to 75% |  |  |  |  |  |  |  | 
COc1c(O)nc(-c2ccccn2)nc1Oc1ccc2ncccc2c1 [drawing 804] | C (51-75% inhibition) | C (51-75% inhibition) | C (51-75% inhibition) | C (51-75% inhibition) | B (26-50% inhibition) | C (51-75% inhibition) | 26 to 50% | 51 to 75% |  |  |  |  |  |  |  | 
